Experimental data as given in paper PMC10726355, “Small Molecule Ligands of the BET-like Bromodomain, SmBRD3, Affect Schistosoma mansoni Survival, Oviposition, and Development” (Journal of Medicinal Chemistry, 2023).

Legend:
[1] = molecular target: SmBRD3(1,2) (Schistosoma mansoni, UniProt A0A5K4ESD7); experiment: biochemical; type: binding; conditions: for Kd: ITC
[2] = molecular target: T1, SmBRD3(2) (Schistosoma mansoni, UniProt A0A5K4ESD7); experiment: biochemical; type: binding
[3] = molecular target: T1, SmBRD3(2); experiment: Differential scanning fluorimetry (thermal shift), SmBRD3(2); type: binding; conditions: DSF; 50 μM compound
Protocol: Reported ΔTm values are the mean of two replicates.
Differential scanning fluorimetry assay
The differential scanning fluorimetry (DSF) or thermal stability assays were carried out following the protocol described by Niesen et al. and data were analysed as described previously.8 Thermal melting experiments were carried out using the Mx3005p real-time PCR machine (Agilent) and employing a protein concentration of 5 μM for the schistosomal bromodomains [SmBRD3(2), […]
the DMSO content was 0.5% (v/v). Buffer conditions were 50 mM HEPES buffer, pH 7.5, 500 mM NaCl and a 1:500 dilution of SYPRO® Orange (Invitrogen, CA) was used. The 96-well PCR plates were sealed and centrifuged for 2 min at 1000 rpm at 25 °C before measurement. The temperature was raised with a step of 1 °C per 30 s from 25 °C to 85 °C, and fluorescence readings were taken at each interval. […]
Isothermal titration calorimetry experiments were performed on a MicroCal PEAQ-ITC Automated or Manual (Malvern) and analysed with the MicroCal PEAQ-ITC Analysis software (Malvern 1.1.0.1262) using a single binding site model. […]
Male adult schistosomes were seeded into 24-well tissue culture plates (5 worms/well), dosed with compounds (20 µM in 0.2% DMSO v/v) and incubated for 24 h at 37 °C in 5% CO2. […] When ready for processing, worms were removed from the −80 °C and subject to 3 rounds of repeated snap freeze:thawing. […]

[4] = tested on: SmBRD3(1,2); experiment: Differential scanning fluorimetry (thermal shift), SmBRD3(1,2); conditions: DSF; 50 μM compound
Protocol: difference between the transition midpoints of sample and reference wells containing protein without inhibitor in the same plate. Reported ΔTm values are the mean of two replicates.
Isothermal titration calorimetry experiments were performed on a MicroCal PEAQ-ITC Automated or Manual (Malvern) and analysed with the MicroCal PEAQ-ITC Analysis software (Malvern 1.1.0.1262) using a single binding site model. For each experiment, the first data point was removed from the analysis. The proteins were dialysed at 4 °C overnight in a Slide-A-LyzerR MINI Dialysis Device (2000 MWCO; Thermo Scientific Life Technologies) into 50 mM HEPES, 150 mM NaCl containing 0.2% DMSO; pH 7.4. Proteins were centrifuged to remove aggregates (3 min, 3000 rpm, 25 °C).
Compounds were dissolved as a DMSO stock solution and diluted to the required concentration using dialysis buffer (DMSO free) and to a final DMSO concentration of 0.2% (unless otherwise specified). The cell was stirred at 750 rpm, reference power set to 5 μcal/s and temperature held at 25 °C. After an initial delay of 60 s, 19 x 2 μL injections (first injection 0.4 μL) were performed with a spacing of 180 s. […]

T1 sequence (A0A5K4ESD7 entry or part of it): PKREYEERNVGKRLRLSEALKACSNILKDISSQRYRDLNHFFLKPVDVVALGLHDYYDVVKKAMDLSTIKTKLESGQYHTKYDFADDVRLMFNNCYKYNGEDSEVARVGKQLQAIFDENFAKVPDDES
SmBRD3(1,2) (Schistosoma mansoni, UniProt A0A5K4ESD7), sequence (A0A5K4ESD7 entry or part of it): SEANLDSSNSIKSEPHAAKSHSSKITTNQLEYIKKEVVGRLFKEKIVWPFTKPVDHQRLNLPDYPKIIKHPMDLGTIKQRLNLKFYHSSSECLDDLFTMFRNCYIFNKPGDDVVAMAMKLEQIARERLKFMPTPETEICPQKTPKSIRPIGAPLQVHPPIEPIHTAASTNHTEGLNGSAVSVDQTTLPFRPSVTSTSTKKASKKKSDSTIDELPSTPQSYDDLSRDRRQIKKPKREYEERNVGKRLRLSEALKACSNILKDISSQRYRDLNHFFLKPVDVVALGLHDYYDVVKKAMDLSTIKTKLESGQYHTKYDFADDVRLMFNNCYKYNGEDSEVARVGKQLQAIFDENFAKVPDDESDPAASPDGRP

Question: What does the source list for CC(=O)N1c2ccc(-c3ccc(C(=O)O)cc3)cc2[C@H](Nc2ccc(Cl)cc2)C[C@@H]1C [I-BET726 (8), I-BET726, reference compound]?
Answer: N number, binding to SmBRD3(1,2) ([1]; ITC stoichiometry, n=1 ± error of curve fit): 1.66 ± 6.7e-2; Kd ([1]; SmBRD3(1,2) Kd, n = 1 ± error of the curve fit): 1.52 ± 0.52 µM; Kd ([1]; SmBRD3(1,2) pKd): 1.58 µM; N number, binding to SmBRD3(2), Repeat 1 ([2]; ITC stoichiometry, Repeat 1): 1.12 ± 4.2e-2; N number, binding to SmBRD3(2), Mean ([2]; ITC stoichiometry, mean of repeats): 1.12 ± 4.2e-2; Kd ([2]; SmBRD3(2) Kd, ITC, single value ± error of the curve fit or mean of 2-3 repeats ± s.e.m.): 1.85 ± 0.361 µM; Kd ([2]; SmBRD3(2) Kd, Repeat 1, ITC, single run ± error of curve fit, Repeat 1): 1.85 ± 0.361 µM; Kd ([2]; SmBRD3(2) pKd, ITC): 2 µM; Thermal stabilisation (ΔTm) of SmBRD3(2) [3]: stabilize both SmBRD3(1,2) and SmBRD3(2); Thermal stabilisation (ΔTm) of SmBRD3(1,2) [4]: stabilize both SmBRD3(1,2) and SmBRD3(2)
